Experimental data as given in PMC6614837 (Nucleic Acids Research, 2019).

Experiments:
[1] = target: T1, RNase P holoenzyme from Thermotoga maritima (Thermotoga maritima, UniProt Q9X1H4); experiment: Real-time fluorescence-based (FRET) RNase P activity assay with minihelix (Mh) substrate; assay type: biochemical; conditions: fluorescent Mh substrate 270 nM, holoenzyme 33 nM, 10% DMSO, 37°C, 400 mM AmOAc, 100 mM MgCl2
T1 construct: made in house
T1 sequence (Q9X1H4 1-117): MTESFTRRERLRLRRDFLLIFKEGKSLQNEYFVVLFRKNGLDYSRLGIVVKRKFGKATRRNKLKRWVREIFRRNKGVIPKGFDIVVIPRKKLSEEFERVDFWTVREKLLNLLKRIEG
Procedure: (§1) The reconstitution of the RNase P holoenzyme was performed as described in ([40],[19]). This protocol produces a homogeneous and functional ribozyme that can be crystallized by mixing P RNA and P protein in a 1:1.1 molar ratio in 1× TH buffer (33 mM Tris–HCl, 66 mM HEPES, pH 7.4) and 400 mM ammonium acetate (AmOAc). The mixture was heated to 95°C for 2 min in a water bath, then chilled on ice for 2 min, after which MgCl2 was added to a final concentration of 100 mM. […] This higher concentration was used in all experiments described herein. The holoenzyme was further incubated at 50°C for 10 min and 37°C for 40 min. The final concentration of holoenzyme was 333 nM (35.6 μg/ml of P RNA and 4.7 μg/ml of P protein).
The minihelix (Mh) substrate (Figure 1A) was adopted from a previously characterized RNase P substrate, pMini3bpUG ([32],[33]) and coupled to either Black Hole Quencher 1 (BHQ1) or Black Hole Quencher 2 (BHQ2) at the 5′-end and Alexa Fluor 488 at the 3′-end. This probe was purchased either from Sigma-Aldrich or Integrated DNA Technologies (IDT). A requested scale of […] yielded between 6.3 and 20 nmol (57.5 to 181 μg, enough for 1300–4000 reactions depending on the experimental substrate concentration). Before use, the minihelix was diluted from a 100 μM stock (dissolved in water) to 3.6 μM in activity buffer H (33 mM Tris–HCl, 66 mM HEPES, pH 7.4, 400 mM AmOAc and 100 mM MgCl2).
(§2) Reactions were performed in a total volume of 20 μl. Pipetting was done by hand using multichannel pipettes. First, an 18 μl reaction mixture containing 16.5 μl of activity buffer (H for Mh or L supplemented with 10% PEG 200 for bipartite pre-tRNA) and 270 nM (Mh) or 135 nM (bipartite pre-tRNA) (1.5 or 0.7 μl of the 3.6 μM stock) of the fluorescent substrate probe was pre-incubated on ice for at least 5 m in a black polystyrene 384-well microtiter microplate with a flat transparent bottom (Corning ref 3540). The holoenzyme was then added at a final concentration of 33 nM (2 μl of a 333 nM stock) in 1× TH buffer and mixed. Kinetic activity was monitored in a Synergy MX Multimode Detector (BioTek) at 37°C with rapid agitation. At least 20 readings were taken per well every 15 s. The probe was excited at 485 nm, and its emission was monitored at 535 nm with an integration time of 1 s. From the plots of relative fluorescent units (RFU) versus time, linear regression was used to determine the slopes in the linear portion of the curves, using at least 12 data points to obtain initial velocities. Non-linear fitting to obtain the Michaelis–Menten parameters was performed using GraphPad Prism® 6.01 software.
Supplementary Figure 3. FRET assays of RNase P with the fluorescent substrate are reproducible. (A) Representative plots of kinetic assays performed in a single run. The standard assay (SA), (+), was performed at 37° C in a total volume of 20 µL and contained RNase P holoenzyme at 33 nM, substrate minihelix (Mh) at 270 nM, 10% DMSO and activity buffer (AB).
The negative control assay (-) contained 100 mM CaCl2 in place of MgCl2. Ten to twelve wells were monitored simultaneously in a typical assay. (B) Zoomed view of the linear region of the kinetic assays shown in panel A. Fluorescence readings were performed every 15-20 seconds.
Linear regression calculations were done using the GraphPad Prism 7 software. (C) The coefficient Z’-factor (1) was used as an indicator of reproducibility and was calculated based on the relative fluorescence units (RFU) in the plateau phase (taken at 20 minutes). The Z’-factor has a […]
presented in this work were either measured in triplicate or confirmed in subsequent assays. (D) […]
assay is robust. The IC50 values reported in Figures 1C and 2 were calculated according to this kinetic parameter. There is a negative drift in fluorescence in the case of the negative control.
However, it should be noted that the mean value of it (-279) is much smaller than the signal of the […]
positive control (3397). […]

[2] = target: T1, RNase P holoenzyme from Thermotoga maritima; experiment: Real-time fluorescence-based RNase P activity assay with bipartite pre-tRNA substrate; assay type: biochemical; conditions: fluorescent bipartite pre-tRNA substrate, holoenzyme 33 nM, 10% PEG 200 in place of DMSO
Procedure: as §1
The bipartite pre-tRNA substrate derived from pre-tRNA^Phe from T. maritima (Supplementary Figure S13) was designed for the ease of chemical synthesis and conceived from the fact that the anticodon loop is not required for RNase P recognition (Reiter et al.). As for the Mh substrate, fluorescent bipartite pre-tRNA was coupled to Black Hole Quencher 1 (BHQ1) at the 5′-end of the 5′ oligo, and to Alexa Fluor 488 at the 3′-end of the 3′ oligo (see Supplementary Table S1). The probes were purchased from Integrated DNA Technologies (IDT). A requested scale of 250 nmol yielded 27.4 nmol (0.36 mg) for the 5′ oligo and 3.8 nmol (50 μg) for the 3′ fluorescent oligo. Before use, the probes were diluted from a 100 μM stock (dissolved in water) and assembled by mixing and heating to 3.6 μM in activity buffer L (Tris–HCl pH 7.4 33 mM, HEPES 66 mM, 100 mM AmOAc and 10 mM MgCl2).
as §2, with “software. […]” for “software.”

[3] = test system: 3'-biotinylated minihelix (Mh; pMini3bpUG) (RNA, hairpin) GAUCUGAAUGCGGAAACGCGCCAC; experiment: biolayer interferometry; conditions: Mg2+ 10 mM, NH4+ 100 mM (ammonium acetate); 20 mM HEPES pH 7.4, DMSO, 30°C; compound 15.6-500 µM

## CN(C)c1ccc(C(=C2C=CC(=[N+](C)C)C=C2)c2ccc(N(C)C)cc2)cc1 [Gentian violet, tris(4-(dimethylamino)phenyl)methylium chloride, reference compound]
[1]
  IC50: 7.3 ± 1.6 µM
[2]
  IC50: 16.2 ± 2.1 µM
[3]
  KD: 8 µM
